Results reported in article PMC7182704 (Computational and Structural Biotechnology Journal, 2020).

Columns and labels:
LinB [1] = target: T1, LinB (Sphingobium indicum, UniProt D4Z2G1); conditions: pH 8.6, 37 °C, cited from earlier work
T1 sequence (D4Z2G1 1-296): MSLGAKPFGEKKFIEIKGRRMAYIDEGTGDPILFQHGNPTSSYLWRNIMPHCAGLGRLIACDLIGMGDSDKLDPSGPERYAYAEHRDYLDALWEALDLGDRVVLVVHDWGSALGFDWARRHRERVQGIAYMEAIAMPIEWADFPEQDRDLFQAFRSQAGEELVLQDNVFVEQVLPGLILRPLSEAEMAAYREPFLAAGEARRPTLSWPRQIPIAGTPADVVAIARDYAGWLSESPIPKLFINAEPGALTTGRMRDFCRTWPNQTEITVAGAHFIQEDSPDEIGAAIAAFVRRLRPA

[2] = Photophysical properties of fluorescent substrates; assay type: physicochemical
[3] = Stability of COU–Br and BDP–Cl in the dark and under irradiation; assay type: physicochemical; conditions: 10 µM, pH 8.0, 30 °C
DmmA = target: T2, DmmA (Lyngbya majuscula, UniProt Q6DND9); conditions: 37 °C, pH 8.6; cited from earlier work
T2 sequence (Q6DND9 25-341): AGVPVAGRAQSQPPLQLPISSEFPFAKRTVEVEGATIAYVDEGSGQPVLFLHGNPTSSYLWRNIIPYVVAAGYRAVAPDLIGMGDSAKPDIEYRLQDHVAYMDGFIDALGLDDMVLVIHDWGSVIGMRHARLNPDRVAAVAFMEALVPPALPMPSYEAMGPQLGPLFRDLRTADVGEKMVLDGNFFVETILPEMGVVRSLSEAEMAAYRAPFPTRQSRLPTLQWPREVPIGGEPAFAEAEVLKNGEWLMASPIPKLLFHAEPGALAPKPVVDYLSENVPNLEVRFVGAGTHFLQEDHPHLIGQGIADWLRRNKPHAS

LinB [4] = target: T1, LinB; conditions: 37 °C, pH 8.6; cited from earlier work
DhaA = conditions: pH 9.4, 30 °C; cited from earlier work
DhlA = conditions: pH 8.2, 30 °C; cited from earlier work
[5] = substrate: COc1cc2oc(=O)cc(CBr)c2cc1OC; test: Steady-state kinetics, fluorescence progress curves fitted globally; assay type: biochemical, marine microbial consortium; conditions: other: DmmA, 30 °C, pH 8.0
[6] = PBS buffer/DMSO (90:10, v/v), pH 8.0, c ≈ 10^−6 M

CCCCCCCl [CH, 1-chlorohexane]
k3 (LinB [1]; three-step model): 3.2 ± 0.2 s⁻¹ | k2 (LinB [1]): 117 ± 5 s⁻¹

COc1cc2oc(=O)cc(CBr)c2cc1OC [COU–Br, 4-(bromomethyl)-6,7-dimethoxycoumarin]
increase in quantum yield upon covalent binding to HLDs [2]: 6 fold | Φfl (quantum yield of fluorescence) [2, 6]: 15.2 ± 1.2% | λmax (absorption maximum) [2, 6]: 354 nm | ε (molar absorption coefficient) ([2]; neat DMSO, three independent measurements): 11,500 M^−1cm^−1 | stability under irradiation ([3]; PBS buffer/DMSO (90:10), xenon lamp 100 W, 10 min): slowly degraded under irradiation | stability in the dark ([3]; PBS buffer/DMSO (90:10, v/v)): stable in the dark

BrCCBr [DBE, 1,2-dibromoethane]
Km (DmmA): 2300 ± 300 µM | kcat (DmmA): 1.8 ± 0.4 s⁻¹ | Km (LinB [4]): 1700 ± 200 µM | kcat (LinB [4]): 12 ± 4 s⁻¹

CCCCCl [CB, 1-chlorobutane]
Km (DmmA): 400 ± 100 µM | kcat (DmmA): 0.17 ± 0.02 s⁻¹ | Km (LinB [4]): 240 ± 20 µM | kcat (LinB [4]): 1.00 ± 0.03 s⁻¹

BrCCCBr [DBP, 1,3-dibromopropane]
k1 (DhaA): 800000 to 2.5e+06 M⁻¹ s⁻¹ | k2 (DhaA): 249 to 272 s⁻¹ | k3 (DhaA): 13.5 to 16.3 s⁻¹ | k4 (DhaA): 3.4 to 4.6 s⁻¹ | k−1 (DhaA): 60 to 300 s⁻¹

ClCCCl [DCE, 1,2-dichloroethane]
k1 (DhlA): 9 ± 1 × 10^-3 μM^−1s^−1 | k2 (DhlA): 50 ± 10 s⁻¹ | k3 (DhlA): 14 ± 3 s⁻¹ | k4 (DhlA): 8 ± 2 s⁻¹ | k−1 (DhlA): 20 ± 5 s⁻¹

B1: DmmA (Lyngbya majuscula) (protein)
chain: AGVPVAGRAQSQPPLQLPISSEFPFAKRTVEVEGATIAYVDEGSGQPVLFLHGNPTSSYLWRNIIPYVVAAGYRAVAPDLIGMGDSAKPDIEYRLQDHVAYMDGFIDALGLDDMVLVIHDWGSVIGMRHARLNPDRVAAVAFMEALVPPALPMPSYEAMGPQLGPLFRDLRTADVGEKMVLDGNFFVETILPEMGVVRSLSEAEMAAYRAPFPTRQSRLPTLQWPREVPIGGEPAFAEAEVLKNGEWLMASPIPKLLFHAEPGALAPKPVVDYLSENVPNLEVRFVGAGTHFLQEDHPHLIGQGIADWLRRNKPHAS
Km [5]: 0.9 ± 0.6 µM | kcat [5]: 1.9 ± 0.1 s⁻¹ | kcat/Km [5]: 2.1e+06 M⁻¹ s⁻¹
